Results published in the supplement of paper PMC10307832.

Experiments:
Test in all cases: relative viability (nuclei count vs DMSO), 5 days (fraction); higher = more cells survive
[1] = compound: O=C(/C=C/c1cccnc1)NCCCCC1CCN(C(=O)c2ccccc2)CC1 [Daporinad] + C[C@@H](Oc1cc(-c2cnn(C3CCNCC3)c2)cnc1N)c1c(Cl)ccc(F)c1Cl [Crizotinib] (partner 1 µM)
In short: (§1)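 Lung cancer cell lines were pin-tool dosed in 1536-well plates on the day after seeding, with either a lone drug or a fixed anchor-drug dose plus five library-drug doses (not always all listed) in √10 steps. Nuclei were counted on 4× images after 5 days. Relative viability is the ratio of treated-well to vehicle-well nuclei counts, with each value a median of duplicate plates.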

[2] = compound: COc1cc(Nc2ncc(F)c(Nc3ccc4c(n3)NC(=O)C(C)(C)O4)n2)cc(OC)c1OC [R406] + O=C(c1cc(Cc2n[nH]c(=O)c3ccccc23)ccc1F)N1CCN(C(=O)C2CC2)CC1 [Olaparib] (partner 8 µM)
In short: as §1

[3] = compound: O=C(/C=C/c1cccnc1)NCCCCC1CCN(C(=O)c2ccccc2)CC1 [Daporinad] + COc1cccc2cc(-c3nc([C@H]4CC[C@H](C(=O)O)CC4)n4ncnc(N)c34)[nH]c12 [OSI-027] (partner 0.5 µM)
In short: as §1

[4] = compound: O=C(/C=C/c1cccnc1)NCCCCC1CCN(C(=O)c2ccccc2)CC1 [Daporinad] + CC(=O)Nc1cccc(-n2c(=O)n(C3CC3)c(=O)c3c(Nc4ccc(I)cc4F)n(C)c(=O)c(C)c32)c1 [Trametinib] (partner 0.02 µM)
In short: as §1

Row | Cell Line | relative viability ([1]; first compound 0.0005 µM) | relative viability ([1]; first compound 0.001581 µM) | relative viability ([1]; first compound 0.005 µM) | relative viability ([1]; first compound 0.01581 µM) | relative viability ([2]; first compound 0.08 µM) | relative viability ([2]; first compound 0.253 µM) | relative viability ([2]; first compound 0.8 µM) | relative viability ([2]; first compound 2.53 µM) | relative viability ([2]; first compound 8 µM) | relative viability ([3]; first compound 0.0005 µM) | relative viability ([3]; first compound 0.001581 µM) | relative viability ([3]; first compound 0.005 µM) | relative viability ([3]; first compound 0.01581 µM) | relative viability ([4]; first compound 0.0005 µM) | relative viability ([4]; first compound 0.001581 µM) | relative viability ([4]; first compound 0.005 µM) | relative viability ([4]; first compound 0.01581 µM)
1 | 201T | 0.954 | 1.05 | 1.04 | 1.03 | 0.853 | 0.867 | 0.873 | 0.824 | 0.515 | 0.745 | 0.612 | 0.794 | 0.795 | 0.713 | 0.731 | 0.705 | 0.735
2 | A549 | 0.903 | 0.777 | 0.844 | 0.546 | 0.28 | 0.464 | 0.328 | 0.0554 | 0.306 |  |  |  |  |  |  |  | 
3 | A-427 | 0.857 | 0.917 | 0.994 | 0.749 | 0.717 | 0.762 | 0.853 | 0.682 | 0.435 | 0.435 | 0.471 | 0.503 | 0.31 | 0.695 | 0.825 | 0.778 | 0.708
4 | ABC-1 | 0.862 | 1.23 | 1.02 | 0.68 | 0.77 | 0.805 | 0.923 | 0.501 | 0.576 | 0.485 | 0.472 | 0.704 | 0.517 |  |  |  | 
5 | BEN | 0.849 | 0.879 | 0.91 | 1.1 | 1.09 | 1.24 | 1.28 | 1.04 | 0.871 | 0.276 | 0.301 | 0.299 | 0.287 | 1.01 | 0.996 | 1.06 | 1.18
6 | CAL-12T | 0.659 | 0.535 | 0.367 | 0.185 | 0.71 | 0.746 | 0.747 | 0.687 | 0.55 | 0.65 | 0.541 | 0.719 | 0.33 | 0.275 | 0.378 | 0.37 | 0.229
7 | COR-L23 | 0.819 | 0.651 | 0.568 | 0.153 | 0.385 | 0.354 | 0.334 | 0.246 | 0.209 | 0.737 | 0.772 | 0.814 | 0.255 | 0.577 | 0.662 | 0.737 | 0.302
8 | COR-L 105 | 0.763 | 0.722 | 0.723 | 0.798 | 0.592 | 0.704 | 0.554 | 0.59 | 0.602 | 0.671 | 0.748 | 0.883 | 0.694 | 0.445 | 0.41 | 0.496 | 0.469
9 | Calu-6 | 0.902 | 0.846 | 0.797 | 0.514 | 0.556 | 0.571 | 0.576 |  | 0.271 |  |  |  |  |  |  |  | 
10 | ChaGo-K-1 | 1.15 | 1.18 | 0.896 | 0.379 | 0.381 | 0.485 | 0.438 | 0.422 | 0.296 | 0.673 | 0.597 | 0.636 | 0.471 | 0.86 | 0.914 | 0.767 | 0.428
11 | EBC-1 | 0.185 | 0.166 | 0.162 | 0.181 | 0.671 | 0.783 | 0.843 | 0.644 | 0.369 |  |  |  |  |  |  |  | 
